Test results reported in ChEMBL document CHEMBL4177700, “Scutellarin inhibits Hela cell growth and glycolysis by inhibiting the activity of pyruvate kinase M2” (Bioorg Med Chem Lett, 2017).
The source made the active and inactive calls. The calls are words filed in the database; no cut-off is given here.

Columns and labels:
[1] = biological target: T1, Pyruvate kinase PKM (Homo sapiens, UniProt P14618); test: Inhibition of recombinant human N-terminal His6/SUMO-tagged PKM1 expressed in Escherichia coli BL21 using PEP as substrate incubated for 30 mins in presence of ADP by spectrophotometric based LDH enzyme coupled assay
Target sequence in this assay (P14618 whole entry): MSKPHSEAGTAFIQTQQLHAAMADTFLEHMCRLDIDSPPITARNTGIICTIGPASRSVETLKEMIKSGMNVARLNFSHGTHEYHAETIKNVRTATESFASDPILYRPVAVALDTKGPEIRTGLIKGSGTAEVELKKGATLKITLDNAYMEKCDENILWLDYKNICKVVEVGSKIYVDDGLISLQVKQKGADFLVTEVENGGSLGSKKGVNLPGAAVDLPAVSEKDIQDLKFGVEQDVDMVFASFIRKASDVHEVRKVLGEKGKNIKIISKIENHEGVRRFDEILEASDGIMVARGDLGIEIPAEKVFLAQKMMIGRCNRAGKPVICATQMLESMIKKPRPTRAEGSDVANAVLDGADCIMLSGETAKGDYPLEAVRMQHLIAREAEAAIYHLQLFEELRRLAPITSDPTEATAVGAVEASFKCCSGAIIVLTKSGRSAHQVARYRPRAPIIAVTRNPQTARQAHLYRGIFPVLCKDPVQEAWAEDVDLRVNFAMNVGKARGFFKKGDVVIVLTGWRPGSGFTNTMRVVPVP

[2] = organism: Homo sapiens; test: Selectivity ratio of IC50 for recombinant human N-terminal His6/SUMO-tagged PKM1 expressed in Escherichia coli BL21 to IC50 for recombinant human N-terminal His6/SUMO-tagged PKM2 expressed in Escherichia coli BL21
[3] = biological target: T1, Pyruvate kinase PKM; test: Inhibition of recombinant human N-terminal His6/SUMO-tagged PKM2 expressed in Escherichia coli BL21 using PEP as substrate incubated for 30 mins in presence of ADP by spectrophotometric based LDH enzyme coupled assay
Target sequence in this assay (P14618 whole entry): as above

[4] = Stability in human HeLa cells at 200 uM after 3 hrs by HPLC analysis (reference value: 100%); type: ADME, cell-based; conditions: read-out: Stability
[5] = tested on: HeLa; test: Cell cycle arrest in human HeLa cells assessed as accumulation at S phase at 200 uM after 48 hrs by […]propidium iodide staining based flow cytometry (reference value: 25.41%); type: functional
[6] = Stability in culture medium at 200 uM after 24 hrs by HPLC analysis (reference value: 100%); type: physicochemical; conditions: read-out: Stability
[7] = Stability in human HeLa cells at 200 uM after 6 hrs by HPLC analysis (reference value: 100%); type: ADME, cell-based; conditions: read-out: Stability
[8] = Stability in culture medium at 200 uM after 6 hrs by HPLC analysis (reference value: 100%); type: physicochemical; conditions: read-out: Stability
[9] = biological target: T1, Pyruvate kinase PKM; test: Binding affinity to PKM2 in human HeLa cells at 100 uM after 6 hrs in presence of biotin by Western blot analysis; type: cell-based
Target sequence in this assay (P14618 2-531 limits assumed): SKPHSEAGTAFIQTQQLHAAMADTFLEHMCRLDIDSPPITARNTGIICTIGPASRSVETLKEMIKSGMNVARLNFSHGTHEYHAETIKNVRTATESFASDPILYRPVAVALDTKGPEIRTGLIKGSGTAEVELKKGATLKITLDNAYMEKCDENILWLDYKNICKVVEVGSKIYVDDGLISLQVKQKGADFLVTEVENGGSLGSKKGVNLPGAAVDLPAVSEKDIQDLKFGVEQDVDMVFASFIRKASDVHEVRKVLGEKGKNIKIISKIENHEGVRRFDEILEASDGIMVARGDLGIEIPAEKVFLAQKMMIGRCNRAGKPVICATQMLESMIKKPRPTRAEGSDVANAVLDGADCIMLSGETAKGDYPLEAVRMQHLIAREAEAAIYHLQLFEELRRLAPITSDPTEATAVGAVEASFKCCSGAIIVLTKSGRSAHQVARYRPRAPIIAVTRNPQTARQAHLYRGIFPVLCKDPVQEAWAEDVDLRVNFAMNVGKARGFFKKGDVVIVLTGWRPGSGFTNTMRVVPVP

[10] = tested on: HeLa; test: Antiproliferative activity against human HeLa cells at 50 to 400 uM after 48 hrs by MTS assay; type: functional, cell-based
[11] = Stability in culture medium at 200 uM after 3 hrs by HPLC analysis (reference value: 100%); type: physicochemical; conditions: read-out: Stability
[12] = biological target: T1, Pyruvate kinase PKM; test: Binding affinity to PKM2 in human HeLa cells at 100 uM after 6 hrs by co-immunoprecipitation based Western blot analysis; type: cell-based
Target sequence in this assay (P14618 2-531 limits assumed): as above

[13] = Stability in culture medium at 200 uM after 12 hrs by HPLC analysis (reference value: 100%); type: physicochemical; conditions: read-out: Stability
[14] = tested on: HeLa; test: Cell cycle arrest in human HeLa cells assessed as accumulation at G2 phase at 400 uM after 48 hrs by […]propidium iodide staining based flow cytometry (reference value: 7.91%); type: functional
[15] = tested on: HeLa; test: Induction of apoptosis in human HeLa cells at 200 to 400 uM after 48 hrs by Annexin V/propidium iodide staining based flow cytometry; type: functional, cell-based
[16] = Stability in human HeLa cells at 200 uM after 12 hrs by HPLC analysis (reference value: 100%); type: ADME, cell-based; conditions: read-out: Stability
[17] = tested on: HeLa; test: Cell cycle arrest in human HeLa cells assessed as accumulation at S phase at 400 uM after 48 hrs by […]propidium iodide staining based flow cytometry (reference value: 25.41%); type: functional
[18] = tested on: HeLa; test: Cell cycle arrest in human HeLa cells assessed as accumulation at G1 phase at 200 uM after 48 hrs by […]propidium iodide staining based flow cytometry (reference value: 66.69%); type: functional
[19] = biological target: T1, Pyruvate kinase PKM; test: Binding affinity to PKM2 in human MCF7 cells at 100 uM after 6 hrs by co-immunoprecipitation based Western blot analysis; type: cell-based
Target sequence in this assay (P14618 2-531 limits assumed): as above

[20] = Stability in human HeLa cells at 200 uM after 24 hrs by HPLC analysis (reference value: 100%); type: ADME, cell-based; conditions: read-out: Stability
[21] = biological target: T1, Pyruvate kinase PKM; test: Binding affinity to PKM2 in human A549 cells at 100 uM after 6 hrs by co-immunoprecipitation based Western blot analysis; type: cell-based
Target sequence in this assay (P14618 2-531 limits assumed): as above

[22] = tested on: HeLa; test: Cell cycle arrest in human HeLa cells assessed as accumulation at G2 phase at 200 uM after 48 hrs by […]propidium iodide staining based flow cytometry (reference value: 7.91%); type: functional
[23] = biological target: T1, Pyruvate kinase PKM; test: Binding affinity to PKM2 in human HeLa cell lysates at 200 uM after 6 hrs by silver staining based LC-MS/MS pull down analysis
Target sequence in this assay (P14618 2-531 limits assumed): as above

[24] = tested on: HeLa; test: Cell cycle arrest in human HeLa cells assessed as accumulation at G1 phase at 400 uM after 48 hrs by […]propidium iodide staining based flow cytometry (reference value: 66.69%); type: functional
[25] = tested on: HeLa; test: Down regulation of cyclin B expression level in human HeLa cells at 200 to 400 uM by Western blot analysis; type: functional, cell-based
[26] = tested on: HeLa; test: Induction of apoptosis in human HeLa cells assessed as increase in cleaved caspase 3 expression level at 100 to 400 uM by Western blot analysis; type: functional, cell-based
[27] = tested on: HeLa; test: Effect on Glut1 expression level in human HeLa cells at 100 to 400 uM after 6 hrs by Western blot analysis; type: functional, cell-based
[28] = biological target: L-lactate dehydrogenase (Homo sapiens, UniProt V9HWB9); test: Inhibition of LDH (unknown origin) assessed as reduction in NADH oxidation at 200 uM after 30 mins; conditions: 0.5 h
[29] = tested on: HeLa; test: Induction of apoptosis in human HeLa cells assessed as increase in Bax/Bcl-2 expression level at 100 to 400 uM by Western blot analysis; type: functional, cell-based
[30] = tested on: HeLa; test: Activation of MEK/ERK/PIN1 pathway in human HeLa cells assessed as increase in PIN1 expression at 100 uM after 2 to 8 hrs by Western blot analysis; type: cell-based
[31] = tested on: HeLa; test: Down regulation of CDK1 expression level in human HeLa cells at 200 to 400 uM by Western blot analysis; type: functional, cell-based
[32] = tested on: HeLa; test: Activation of MEK/ERK/PIN1 pathway in human HeLa cells assessed as increase in MEK protein expression at 100 uM after 2 to 8 hrs by Western blot analysis; type: cell-based
[33] = biological target: T1, Pyruvate kinase PKM; test: Inhibition of PKM2 in human HeLa cells assessed as reduction in cellular glycolytic rate after 6 hrs; type: cell-based
Target sequence in this assay (P14618 2-531 limits assumed): as above

[34] = tested on: HeLa; test: Activation of MEK/ERK/PIN1 pathway in human HeLa cells assessed as increase in phosphorylated ERK1/2 expression at 100 uM after 2 to 8 hrs by Western blot analysis; type: cell-based

**Q.** Which results are given for `CC(C)=CC[C@@H](O)C1=CC(=O)c2c(O)ccc(O)c2C1=O` [SHIKONIN]?
**A.** IC50 [1]: 10 µM; Ratio IC50 [2]: 20; IC50 [3]: 0.5 µM

**Q.** For `O=C(CCCC[C@@H]1SC[C@@H]2NC(=O)N[C@@H]21)NCCOCCOCCNC(=O)COc1ccc(-c2cc(=O)c3c(O)c(O)c(O)cc3o2)cc1`, which remaining at 3 h, 200 µM [4] is on record?
**A.** 98%

**Q.** What about the Activity [5] of the same molecule?
**A.** 25.44%

**Q.** What about the remaining at 24 h, 200 µM [6] of the same molecule?
**A.** 52%

**Q.** And the remaining at 6 h, 200 µM [7]?
**A.** 93%

**Q.** And the remaining at 6 h, 200 µM [8]?
**A.** 87%

**Q.** What about the Activity [9] of the same molecule?
**A.** inactive

**Q.** What about the Activity [10] of the same molecule?
**A.** Active

**Q.** What about the remaining at 3 h, 200 µM [11] of the same molecule?
**A.** 89%

**Q.** What about the Activity [12] of the same molecule?
**A.** Active

**Q.** And the remaining at 12 h, 200 µM [13]?
**A.** 54%

**Q.** What about the Activity [14] of the same molecule?
**A.** 15.52%

**Q.** And the Activity [15]?
**A.** Active

**Q.** What about the remaining at 12 h, 200 µM [16] of the same molecule?
**A.** 36%

**Q.** And the Activity [17]?
**A.** 36.92%

**Q.** And the Activity [18]?
**A.** 63.05%

**Q.** What about the Activity [19] of the same molecule?
**A.** Active

**Q.** And the remaining at 24 h, 200 µM [20]?
**A.** 29%

**Q.** What about the Activity [21] of the same molecule?
**A.** Active

**Q.** What about the Activity [22] of the same molecule?
**A.** 11.51%

**Q.** What about the Activity [23] of the same molecule?
**A.** Active

**Q.** What about the Activity [24] of the same molecule?
**A.** 47.56%

**Q.** Which IC50 [1] does the source give for `O=c1cc(-c2ccc(O)cc2)oc2cc(O)c(O)c(O)c12` [SCUTELLAREIN] here?
**A.** 100 µM

**Q.** What about the Activity [5] of the same molecule?
**A.** 25.34%

**Q.** And the Activity [25]?
**A.** Active

**Q.** What about the Activity [10] of the same molecule?
**A.** Active

**Q.** And the Activity [26]?
**A.** Active

**Q.** What about the Ratio IC50 [2] of the same molecule?
**A.** 8

**Q.** And the Activity [27]?
**A.** inactive

**Q.** And the “inhibition (INH)” value [28]?
**A.** Not Active

**Q.** What about the Activity [29] of the same molecule?
**A.** Active

**Q.** And the Activity [30]?
**A.** Active

**Q.** What about the IC50 [3] of the same molecule?
**A.** 12.5 µM

**Q.** And the Activity [31]?
**A.** Active

**Q.** What about the Activity [14] of the same molecule?
**A.** 16.19%

**Q.** And the Activity [15]?
**A.** Active

**Q.** What about the Activity [17] of the same molecule?
**A.** 31.89%

**Q.** What about the Activity [18] of the same molecule?
**A.** 62.11%

**Q.** And the Activity [32]?
**A.** Active

**Q.** What about the inhibition [33] of the same molecule?
**A.** Dose-dependent effect

**Q.** What about the Activity [22] of the same molecule?
**A.** 12.55%

**Q.** And the Activity [34]?
**A.** Active

**Q.** What about the Activity [24] of the same molecule?
**A.** 51.91%

**Q.** With `NCCOCCOCCNC(=O)CCCC[C@@H]1SC[C@@H]2NC(=O)N[C@@H]21` as the molecule, how does the Activity [23] read?
**A.** Active

**Q.** With `O=C(O)[C@H]1O[C@@H](Oc2cc3oc(-c4ccc(O)cc4)cc(=O)c3c(O)c2O)[C@H](O)[C@@H](O)[C@@H]1O` as the molecule, how does the inhibition [33] read?
**A.** Dose-dependent effect

**Q.** Which IC50 [1] does the source give for `Cc1ccc(C)n1-c1ccc(O)c(C(=O)O)c1` here?
**A.** 100 µM

**Q.** What about the Ratio IC50 [2] of the same molecule?
**A.** 8

**Q.** And the IC50 [3]?
**A.** 12.5 µM

**Q.** What does the source list for `O=C1N[C@H]2[C@H](CS[C@H]2CCCCC(=O)Oc2ccc(-c3cc(=O)c4c(O)c(O)c(O)cc4o3)cc2)N1`?
**A.** remaining at 3 h, 200 µM [4]: 99%; remaining at 24 h, 200 µM [6]: 49%; remaining at 6 h, 200 µM [7]: 85%; remaining at 6 h, 200 µM [8]: 97%; Activity [10]: Active; remaining at 3 h, 200 µM [11]: 98%; remaining at 12 h, 200 µM [13]: 50%; remaining at 12 h, 200 µM [16]: 37%; remaining at 24 h, 200 µM [20]: 37%; Activity [23]: Active
